From ChEMBL document CHEMBL1201862, “PubChem BioAssay data set” (2004)
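Each compound was tested at five concentrations against cells in 96-well plates for 48 hours. Here, GI50 denotes the concentration required for 50% inhibition of growth.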 Activity calls are given as the source filed them. Rule as the data show it: active = GI50 up to about 1.1 µM and inactive = higher.

Legend:
Test in all cases: NCI-60 cell line screen, 48 h
HCT-116 = system: HCT-116
SW-620 = system: SW-620
UO-31 = system: UO-31
RXF 393 = system: RXF 393
KM12 = system: KM12
NCI/ADR-RES = system: NCI/ADR-RES
SK-MEL-28 = system: SK-MEL-28
PC-3 = system: PC-3
LOX IMVI = system: LOX IMVI
SNB-19 = system: SNB-19
SF-268 = system: SF-268
MDA-MB-231 = system: MDA-MB-231
SF-539 = system: SF-539
HOP-92 = system: HOP-92
HL-60 = system: HL-60
NCI-H460 = system: NCI-H460
UACC-62 = system: UACC-62
U-251 = system: U-251
OVCAR-5 = system: OVCAR-5
SR = system: SR
HOP-62 = system: HOP-62
HT-29 = system: HT-29
NCI-H522 = system: NCI-H522
K562 = system: K562
EKVX = system: EKVX
Malme-3M = system: Malme-3M
SK-MEL-5 = system: SK-MEL-5
OVCAR-8 = system: OVCAR-8
786-0 = system: 786-0
MDA-MB-435 = system: MDA-MB-435
SN12C = system: SN12C
HCT-15 = system: HCT-15
CCRF-CEM = system: CCRF-CEM
COLO 205 = system: COLO 205
TK-10 = system: TK-10
A549 = system: A549
NCI-H23 = system: NCI-H23
UACC-257 = system: UACC-257
M14 = system: M14
A498 = system: A498
MOLT-4 = system: MOLT-4
OVCAR-4 = system: OVCAR-4
CAKI-1 = system: CAKI-1
NCI-H226 = system: NCI-H226
SK-MEL-2 = system: SK-MEL-2
BT-549 = system: BT-549
IGROV-1 = system: IGROV-1
SK-OV-3 = system: SK-OV-3
MCF7 = system: MCF7
Hs-578T = system: Hs-578T
RPMI-8226 = system: RPMI-8226
SNB-75 = system: SNB-75
OVCAR-3 = system: OVCAR-3
ACHN = system: ACHN
T47D = system: T47D
DU-145 = system: DU-145
SF-295 = system: SF-295
HCC 2998 = system: HCC 2998
MDA-N = system: MDA-N

COc1ccc(C2=NNC(=O)c3ccccc3N2c2nc(-c3cccs3)nc3ccc(Br)cc23)cc1
GI50 (HCT-116): 69.5 µM (inactive) | GI50 (SW-620): 91.4 µM (inactive) | GI50 (UO-31): > 100 µM (inactive) | GI50 (RXF 393): 68.4 µM (inactive) | GI50 (KM12): 61.5 µM (inactive) | GI50 (NCI/ADR-RES): 19.1 µM (inactive) | GI50 (SK-MEL-28): > 100 µM (inactive) | GI50 (PC-3): 24.7 µM (inactive) | GI50 (LOX IMVI): 27.1 µM (inactive) | GI50 (SNB-19): 30.1 µM (inactive) | GI50 (SF-268): 31 µM (inactive) | GI50 (MDA-MB-231): 43.2 µM (inactive) | GI50 (SF-539): 16.7 µM (inactive) | GI50 (HOP-92): > 100 µM (inactive) | GI50 (HL-60): > 100 µM (inactive) | GI50 (NCI-H460): 40.4 µM (inactive) | GI50 (UACC-62): 64.1 µM (inactive) | GI50 (U-251): 28.8 µM (inactive) | GI50 (OVCAR-5): 61.4 µM (inactive) | GI50 (SR): 42 µM (inactive) | GI50 (HOP-62): 17.6 µM (inactive) | GI50 (HT-29): > 100 µM (inactive) | GI50 (NCI-H522): 64.9 µM (inactive) | GI50 (K562): 99.5 µM (inactive) | GI50 (EKVX): 24.6 µM (inactive) | GI50 (Malme-3M): 25.2 µM (inactive) | GI50 (SK-MEL-5): > 100 µM (inactive) | GI50 (OVCAR-8): 53.5 µM (inactive) | GI50 (786-0): 25.8 µM (inactive) | GI50 (MDA-MB-435): > 100 µM (inactive) | GI50 (SN12C): 56 µM (inactive) | GI50 (HCT-15): 34.2 µM | GI50 (CCRF-CEM): 5.25 µM (inactive) | GI50 (COLO 205): 73.8 µM (inactive) | GI50 (TK-10): 28.2 µM (inactive) | GI50 (A549): 60.7 µM (inactive) | GI50 (NCI-H23): 31 µM (inactive) | GI50 (UACC-257): 51.9 µM (inactive) | GI50 (M14): 37.4 µM (inactive) | GI50 (A498): > 100 µM (inactive) | GI50 (MOLT-4): 65.8 µM (inactive) | GI50 (OVCAR-4): 39.8 µM (inactive) | GI50 (CAKI-1): 76.2 µM (inactive) | GI50 (NCI-H226): 19.8 µM (inactive) | GI50 (SK-MEL-2): 78.9 µM (inactive) | GI50 (BT-549): 37.5 µM (inactive) | GI50 (IGROV-1): 63.5 µM (inactive) | GI50 (SK-OV-3): 53.7 µM (inactive) | GI50 (MCF7): 68.1 µM (inactive) | GI50 (Hs-578T): 35.1 µM (inactive) | GI50 (RPMI-8226): 52.2 µM (inactive) | GI50 (SNB-75): 41.4 µM (inactive) | GI50 (OVCAR-3): 23 µM (inactive) | GI50 (ACHN): 61.2 µM (inactive) | GI50 (T47D): 23.7 µM (inactive) | GI50 (DU-145): 39.9 µM (inactive) | GI50 (SF-295): 20.6 µM (inactive)

COc1cc2cc(C(=O)N3CC(CCl)c4ccc(O)cc43)[nH]c2c(OC)c1OC (configuration not stated)
GI50 (HCT-116): < 0.0001 µM (active) | GI50 (SW-620): 0.00233 µM (active) | GI50 (UO-31): 0.0198 µM (active) | GI50 (RXF 393): < 0.0001 µM (active) | GI50 (KM12): 0.00507 µM (active) | GI50 (NCI/ADR-RES): 0.00162 µM (active) | GI50 (SK-MEL-28): 0.00196 µM (active) | GI50 (LOX IMVI): 0.00184 µM (active) | GI50 (SNB-19): 0.00406 µM (active) | GI50 (SF-268): 0.00596 µM (active) | GI50 (MDA-MB-231): 0.00196 µM (active) | GI50 (SF-539): 0.00171 µM (active) | GI50 (HOP-92): 0.0292 µM (active) | GI50 (HL-60): 0.00647 µM (active) | GI50 (UACC-62): 0.00136 µM (active) | GI50 (U-251): 0.000791 µM (active) | GI50 (OVCAR-5): 0.129 µM (active) | GI50 (SR): 0.0034 µM (active) | GI50 (HOP-62): 0.00363 µM (active) | GI50 (HT-29): 0.00104 µM (active) | GI50 (NCI-H522): < 0.0001 µM (active) | GI50 (K562): 0.000282 µM (active) | GI50 (EKVX): 0.0513 µM (active) | GI50 (Malme-3M): 0.00344 µM (active) | GI50 (SK-MEL-5): < 0.0001 µM (active) | GI50 (OVCAR-8): 0.00132 µM (active) | GI50 (786-0): 0.00012 µM (active) | GI50 (MDA-MB-435): 0.00263 µM (active) | GI50 (SN12C): 0.00441 µM (active) | GI50 (HCT-15): 0.00562 µM | GI50 (CCRF-CEM): < 0.01 µM (active) | GI50 (COLO 205): 0.0227 µM (active) | GI50 (TK-10): 0.0408 µM (active) | GI50 (A549): 0.000501 µM (active) | GI50 (NCI-H23): 0.00199 µM (active) | GI50 (UACC-257): 0.0149 µM (active) | GI50 (M14): 0.00163 µM (active) | GI50 (A498): < 0.01 µM (active) | GI50 (HCC 2998): 0.000593 µM (active) | GI50 (MOLT-4): 0.000865 µM (active) | GI50 (OVCAR-4): 0.00491 µM (active) | GI50 (CAKI-1): 0.00218 µM (active) | GI50 (NCI-H226): 0.0168 µM (active) | GI50 (SK-MEL-2): 0.00169 µM (active) | GI50 (MDA-N): < 0.01 µM (active) | GI50 (IGROV-1): 0.0198 µM (active) | GI50 (MCF7): < 0.0001 µM (active) | GI50 (Hs-578T): 0.016 µM (active) | GI50 (RPMI-8226): 0.000556 µM (active) | GI50 (SNB-75): 0.00628 µM (active) | GI50 (OVCAR-3): 0.0031 µM (active) | GI50 (ACHN): < 0.0001 µM (active) | GI50 (T47D): 0.0356 µM (active) | GI50 (DU-145): 0.00466 µM (active) | GI50 (SF-295): 0.000285 µM (active)
